PMC3818835, “What Goes around Comes around-A Comparative Study of the Influence of Chemical Modifications on the Antimicrobial Properties of Small Cyclic Peptides” (Pharmaceuticals, 2013)
Converted amounts (≈) assume the structure as drawn. Peptide text beside a SMILES is read from it.

How the values were obtained:
[1] = tested on: B. subtilis DSM 347; assay type: cell-based; details: DSM 347, 18 h
Experimental: (§1) The minimal inhibitory concentration (MIC) of the cyclic hexapeptides was tested against Gram-negative E. coli DH5α and Gram-positive B. subtilis DSM 347 using a microdilution technique in 96 well microtiter plates as described previously. Briefly, cells from an overnight culture were inoculated 1:100 in LB medium, grown to mid log phase (OD600 0.4 ± 0.1) and adjusted to 5 × 10^5 cells/well. Final peptide concentrations ranged from 0.05 µM to 100 µM (2-fold dilutions) and were tested in triplicates in at least three independent experiments. The MIC was determined after 18 h of incubation at 37 °C, 180 rpm being the lowest peptide concentration at which no visible bacterial growth can be detected photometrically (A600, Safire Microplate Reader, Tecan, Männedorf, Germany).

[2] = tested on: E. coli DH5α; assay type: cell-based; details: 18 h
Experimental: as §1

[3] = tested on: human erythrocytes; assay type: cell-based; details: pH 7.4
Experimental: The lytic effect of selected peptides upon human erythrocytes was determined as described before. Briefly, cells were washed thoroughly in Tris buffer (10 mM Tris, 150 mM NaCl, pH 7.4). Suspensions with 2.5 × 10^8 cells/mL were incubated with peptides at a final concentration of 100 µM for 30 min at 37 °C. After centrifugation, 0.6% NH4OH was added to an aliquot of the supernatant and hemoglobin absorption (A) was measured at 540 nm (Jasco V-550). Whole cell suspensions exposed to NH4OH were used as positive control (A100%) and preparations without peptide served as negative control (A0%), respectively. Data were collected in three independent experiments.

[4] = Hydrophobicity: retention time tR by reversed phase HPLC; assay type: physicochemical; details: chromatographic, RP-HPLC ProntoSil 300-5-C18-H (250 × 4.6 mm, 5 µm); peptide 1 mg/mL in phase A (0.1% TFA in water); B 0.1% TFA in 80% acetonitrile; linear gradient 5%–95% B over 40 min at 22 °C; used as a measure of hydrophobicity
Experimental: The retention time tR of the cyclic hexapeptides was determined by HPLC on a Jasco LC-2000Plus using a ProntoSil 300-5-C18-H column (250 × 4.6 mm, 5 µm) (Bischoff Chromatography). Peptide concentration was 1 mg/mL in mobile phase A (0.1% TFA in deionized water), mobile phase B consisted of 0.1% TFA in 80% acetonitrile in deionized water. For chromatographic analyses a linear gradient of 5%–95% phase B over 40 min at 22 °C was applied.
To investigate the influence of fluorescent label modification and amino acid substitution on the hydrophobicity/amphipathicity of the cyclic hexapeptide derivatives, we determined the retention time tR by reversed phase HPLC (Figure 2). The method monitors the retention of compounds by the hydrophobic HPLC stationary phase. Differences in tR reflect differences in the effective hydrophobicity of the molecule which is related to the intrinsic hydrophobicity of the individual residues and their ability to form hydrophobic domains for interaction with the HPLC matrix. At the same time, hydrophilic residues will locate at the opposite side of the molecule. Reduction in the size or positioning of cationic residues next to the hydrophobic molecular surface area would reduce amphipathicity. tR-measurements have successfully been applied to characterize amphipathic helices, β-structured peptides and different sets of our small cyclic R-, W-rich peptides.

[5] = tested on: eukaryotic cells; set-up: method as in PMID 15248771; details: cited from earlier work
[6] = tested on: B. subtilis DSM 347; details: 5 µM, PI influx; cited from earlier work
Experimental: Figure 4 Bacterial membrane permeabilisation determined with flow cytometry using propidium iodide (PI). PI influx after incubation with cWFW, fluorescent-labeled and K-substituted cyclic hexapeptides was tested into B. subtilis DSM 347 (A,C) and E. coli DH5α (B,D) at respective MICs. […] Preparations without peptide were used as negative co ...

Row | Compound | MIC B. subtilis DSM 347 [1] | MIC E. coli DH5α [2] | Hemolysis at 100 µM [3] | Retention Time tR [4] | Toxicity towards eukaryotic cells [5] | Membrane permeabilising potential, Gram-positive cells (positive control) [6]
1 | N=C(N)NCCC[C@@H]1NC(=O)[C@H](CCCNC(=N)N)NC(=O)[C@H](Cc2c[nH]c3ccccc23)NC(=O)[C@H](Cc2ccccc2)NC(=O)[C@H](Cc2c[nH]c3ccccc23)NC(=O)[C@H](CCCNC(=N)N)NC1=O [cWFW] (cyclo(FWRRRW); ring closure inferred) | 3 µM (≈ 2.96 µg/mL) | 3 µM (≈ 2.96 µg/mL) | 4% | 17.67 min | no toxicity towards eukaryotic cells could be detected | –
2 | KLALKLALKALKAALKLA-NH2 [KLA-1, helical model peptide …-NH2, positive control in Gram-positive cells] | – | – | – | – | – | high membrane permeabilising potential
